From ChEMBL document CHEMBL4052827, “Discovery of Tetrahydroisoquinoline-Containing CXCR4 Antagonists with Improved in Vitro ADMET Properties” (J Med Chem, 2018)

Legend:
[1] = biological target: T1, C-X-C chemokine receptor type 4 (Homo sapiens, UniProt P61073); assay: Antagonist activity at human CXCR4 in CCRF-CEM cells assessed as decrease in SDF-1alpha stimulated Ca2+ flux preincubated for 25 mins followed by SDF-1alpha addition measured for 90 secs by calcium dye-based fluorescence assay; assay type: functional, cell-based
T1 sequence (P61073 whole entry): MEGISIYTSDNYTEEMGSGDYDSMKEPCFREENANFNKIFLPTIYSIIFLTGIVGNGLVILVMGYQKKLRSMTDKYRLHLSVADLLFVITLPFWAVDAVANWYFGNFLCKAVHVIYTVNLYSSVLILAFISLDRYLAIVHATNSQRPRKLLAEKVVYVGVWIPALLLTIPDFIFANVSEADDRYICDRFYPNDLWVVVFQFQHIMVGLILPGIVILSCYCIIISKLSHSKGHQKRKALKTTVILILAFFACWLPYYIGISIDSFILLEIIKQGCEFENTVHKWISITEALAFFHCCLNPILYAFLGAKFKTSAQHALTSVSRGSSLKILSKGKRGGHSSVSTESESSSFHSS

[2] = Antagonist activity at mAChR in human CCRF-CEM cells assessed as decrease in acetylacholine-stimulated Ca2+ flux preincubated for 25 mins followed by acetylacholine addition measured for 90 secs by calcium dye-based fluorescence assay; assay type: cell-based
[3] = Permeability of the compound at pH 5.5 at 100 uM after 4 hrs by PAMPA
Cytochrome P450 2D6 = Cytochrome P450 2D6 (Homo sapiens, UniProt P10635); assay: Inhibition of recombinant human CYP2D6 expressed in microsomes of insect cells using AMMC as substrate preincubated for 30 mins followed by NADP addition after 45 mins by fluorescence analysis
Sequence of Cytochrome P450 2D6 (P10635 whole entry): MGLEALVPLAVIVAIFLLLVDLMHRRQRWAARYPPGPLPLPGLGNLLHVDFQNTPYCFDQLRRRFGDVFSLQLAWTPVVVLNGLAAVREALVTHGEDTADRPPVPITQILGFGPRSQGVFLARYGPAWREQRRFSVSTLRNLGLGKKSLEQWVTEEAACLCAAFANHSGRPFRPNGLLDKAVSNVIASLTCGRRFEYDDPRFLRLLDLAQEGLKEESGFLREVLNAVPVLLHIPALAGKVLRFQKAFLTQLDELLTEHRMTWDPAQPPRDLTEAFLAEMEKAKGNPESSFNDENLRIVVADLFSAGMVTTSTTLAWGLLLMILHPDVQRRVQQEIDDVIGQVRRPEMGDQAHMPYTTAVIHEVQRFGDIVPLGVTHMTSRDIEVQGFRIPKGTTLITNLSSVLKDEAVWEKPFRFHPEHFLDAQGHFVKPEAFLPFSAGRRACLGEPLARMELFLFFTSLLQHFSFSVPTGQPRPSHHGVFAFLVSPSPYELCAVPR

Cytochrome P450 3A4 = Cytochrome P450 3A4 (Homo sapiens, UniProt P08684); assay: Inhibition of CYP3A4 (unknown origin)
Sequence of Cytochrome P450 3A4 (P08684 whole entry): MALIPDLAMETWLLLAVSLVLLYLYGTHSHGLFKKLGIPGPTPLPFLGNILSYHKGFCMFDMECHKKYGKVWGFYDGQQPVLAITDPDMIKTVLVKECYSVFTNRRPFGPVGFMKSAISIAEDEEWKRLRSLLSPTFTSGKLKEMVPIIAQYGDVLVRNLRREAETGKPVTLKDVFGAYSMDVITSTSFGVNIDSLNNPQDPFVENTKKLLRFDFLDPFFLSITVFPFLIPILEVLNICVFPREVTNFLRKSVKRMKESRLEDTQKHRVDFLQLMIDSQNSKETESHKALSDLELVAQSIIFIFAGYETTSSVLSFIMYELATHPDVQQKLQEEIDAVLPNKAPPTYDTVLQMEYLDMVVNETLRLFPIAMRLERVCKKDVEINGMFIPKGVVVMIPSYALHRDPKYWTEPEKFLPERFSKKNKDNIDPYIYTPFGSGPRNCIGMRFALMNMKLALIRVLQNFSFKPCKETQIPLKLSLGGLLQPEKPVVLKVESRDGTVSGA

[4] = Metabolic stability in human liver microsomes assessed as parent compound remaining at 0.5 uM after 10 mins in presence of NADPH by LC-MS/MS analysis
[5] = Metabolic stability in mouse liver microsomes assessed as parent compound remaining at 0.5 uM after 10 mins in presence of NADPH by LC-MS/MS analysis
[6] = biological target: T1, C-X-C chemokine receptor type 4; assay: Agonist activity at CXCR4 in human CCRF-CEM cells assessed as induction of Ca2+ flux measured for 90 secs by calcium dye-based fluorescence assay; assay type: functional, cell-based
[7] = Agonist activity at mAChR in human CCRF-CEM cells assessed as induction of Ca2+ flux measured for 90 secs by calcium dye-based fluorescence assay; assay type: cell-based
[8] = Permeability of the compound at pH 7.4 at 100 uM after 4 hrs by PAMPA
[9] = Inhibition of CYP1A4 (unknown origin)
Cytochrome P450 2C19 = Cytochrome P450 2C19 (Homo sapiens, UniProt P33261); assay: Inhibition of CYP2C19 (unknown origin)
Sequence of Cytochrome P450 2C19 (P33261 whole entry): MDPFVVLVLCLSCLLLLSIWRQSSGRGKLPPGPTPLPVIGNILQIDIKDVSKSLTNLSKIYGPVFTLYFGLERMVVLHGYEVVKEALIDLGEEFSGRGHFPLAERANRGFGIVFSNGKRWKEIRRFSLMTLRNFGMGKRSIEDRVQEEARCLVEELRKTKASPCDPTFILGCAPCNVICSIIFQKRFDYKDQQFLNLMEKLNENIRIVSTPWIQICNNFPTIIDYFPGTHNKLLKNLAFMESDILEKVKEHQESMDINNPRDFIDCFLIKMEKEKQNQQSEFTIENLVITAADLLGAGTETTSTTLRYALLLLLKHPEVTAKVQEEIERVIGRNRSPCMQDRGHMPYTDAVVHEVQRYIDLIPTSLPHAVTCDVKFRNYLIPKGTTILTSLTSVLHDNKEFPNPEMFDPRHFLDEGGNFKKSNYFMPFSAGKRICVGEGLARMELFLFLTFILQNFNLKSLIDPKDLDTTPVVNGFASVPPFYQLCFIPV

Cytochrome P450 2C8 = biological target: T2, Cytochrome P450 2C8 (Homo sapiens, UniProt P10632); assay: Inhibition of CYP2C8 (unknown origin)
T2 sequence (P10632 whole entry): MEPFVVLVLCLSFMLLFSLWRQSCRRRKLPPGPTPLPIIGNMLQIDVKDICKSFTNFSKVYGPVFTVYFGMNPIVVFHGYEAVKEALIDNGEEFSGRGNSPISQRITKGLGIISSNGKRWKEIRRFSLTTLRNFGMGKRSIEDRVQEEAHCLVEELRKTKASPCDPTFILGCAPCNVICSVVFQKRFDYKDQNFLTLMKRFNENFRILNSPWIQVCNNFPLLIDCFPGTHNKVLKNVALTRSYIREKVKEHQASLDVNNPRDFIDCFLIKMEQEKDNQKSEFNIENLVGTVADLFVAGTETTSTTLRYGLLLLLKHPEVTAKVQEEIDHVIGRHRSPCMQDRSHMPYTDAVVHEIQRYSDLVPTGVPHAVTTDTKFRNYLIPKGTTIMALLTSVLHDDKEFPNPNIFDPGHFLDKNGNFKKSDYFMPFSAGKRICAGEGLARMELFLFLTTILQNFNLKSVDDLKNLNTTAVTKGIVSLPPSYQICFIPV

Cytochrome P450 2C9 = Cytochrome P450 2C9 (Homo sapiens, UniProt P11712); assay: Inhibition of CYP2C9 (unknown origin)
Sequence of Cytochrome P450 2C9 (P11712 whole entry): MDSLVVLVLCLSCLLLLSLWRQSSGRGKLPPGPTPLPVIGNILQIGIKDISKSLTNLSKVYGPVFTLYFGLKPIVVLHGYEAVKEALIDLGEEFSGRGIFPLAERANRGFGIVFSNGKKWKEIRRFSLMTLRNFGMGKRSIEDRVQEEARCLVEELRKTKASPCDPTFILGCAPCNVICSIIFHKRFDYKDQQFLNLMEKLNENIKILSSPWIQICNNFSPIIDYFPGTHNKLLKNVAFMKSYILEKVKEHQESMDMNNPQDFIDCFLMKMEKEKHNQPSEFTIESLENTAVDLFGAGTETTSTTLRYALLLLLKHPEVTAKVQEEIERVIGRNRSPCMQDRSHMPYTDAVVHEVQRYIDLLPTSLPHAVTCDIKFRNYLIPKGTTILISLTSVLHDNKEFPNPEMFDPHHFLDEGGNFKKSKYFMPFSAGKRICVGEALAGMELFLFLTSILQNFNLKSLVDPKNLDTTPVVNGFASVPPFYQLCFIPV

[10] = biological target: C-X-C chemokine receptor type 4 (Mus musculus, UniProt P70658); assay: Antagonist activity at mouse CXCR4
Sequence of C-X-C chemokine receptor type 4 (Mus musculus, UniProt P70658) (P70658 whole entry): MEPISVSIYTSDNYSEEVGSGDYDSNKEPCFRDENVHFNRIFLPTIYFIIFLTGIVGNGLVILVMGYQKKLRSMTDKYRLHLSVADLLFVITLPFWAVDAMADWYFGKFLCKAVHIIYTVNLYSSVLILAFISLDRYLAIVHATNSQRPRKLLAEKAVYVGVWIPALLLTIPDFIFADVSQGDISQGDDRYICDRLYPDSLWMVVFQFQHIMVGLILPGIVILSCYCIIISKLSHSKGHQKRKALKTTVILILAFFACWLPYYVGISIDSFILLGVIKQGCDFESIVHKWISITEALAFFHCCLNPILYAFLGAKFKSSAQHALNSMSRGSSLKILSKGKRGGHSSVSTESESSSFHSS

[11] = Half life in human liver microsomes; assay type: ADME, microsome
[12] = Half life in rat Plasma; assay type: ADME, cell-free
Homo sapiens = species: Homo sapiens; assay: Inhibition of chemokine receptor (unknown origin) at 10 uM

Structure (SMILES)	IC50 [1]	IC50 [2]	Papp at 4 h, 100 µM [3]	IC50 (Cytochrome P450 2D6)	IC50 (Cytochrome P450 3A4)	remaining at 10 min, 0.5 µM [4]	remaining at 10 min, 0.5 µM [5]	EC50 [6]	EC50 [7]	IC90 [1]	Papp at 4 h, 100 µM [8]	IC50 [9]	IC50 (Cytochrome P450 2C19)	IC50 (Cytochrome P450 2C8)	IC50 (Cytochrome P450 2C9)	IC50 [10]	half-life [11]	half-life [12]	inhibition (Homo sapiens)
CC(C)(N)CCCN(C[C@H]1Cc2ccccc2CN1)[C@H]1CCCc2cccnc21	0.0246 µM	> 16.7 µM	2 ×10⁻⁶ cm/s	0.345 µM	> 20 µM	73.5%	3.32%	> 30 µM	> 30 µM	–	–	–	–	–	–	–	–	–	–
C(=C\CN(C[C@H]1Cc2ccccc2CN1)[C@H]1CCCc2cccnc21)/CNCC1CCOCC1	–	19.9 µM	3.35 ×10⁻⁶ cm/s	3.32 µM	–	74.5%	32.3%	> 30 µM	> 30 µM	0.195 µM	12.2 ×10⁻⁶ cm/s	< 5 µM	< 5 µM	< 5 µM	< 5 µM	0.00547 µM	–	–	–
C(=C\CN(C[C@H]1Cc2ccccc2CN1)[C@H]1CCCc2cccnc21)/CNC1CCOCC1	–	5.61 µM	10.5 ×10⁻⁶ cm/s	2.61 µM	–	69.9%	10%	> 30 µM	> 30 µM	0.191 µM	43.4 ×10⁻⁶ cm/s	< 5 µM	< 5 µM	< 5 µM	< 5 µM	0.00924 µM	–	–	–
CC(C)(CN)CCN(C[C@H]1Cc2ccccc2CN1)[C@H]1CCCc2cccnc21	0.069 µM	> 16.7 µM	–	0.498 µM	> 20 µM	88.7%	51.2%	> 30 µM	> 30 µM	–	40.5 ×10⁻⁶ cm/s	–	–	–	–	–	–	–	–
c1ccc2c(c1)CN[C@@H](CN(CCCCNCC1CCCCC1)[C@H]1CCCc3cccnc31)C2	0.158 µM	> 16.7 µM	2.1 ×10⁻⁶ cm/s	0.354 µM	–	50%	41.8%	> 30 µM	> 30 µM	–	0.9 ×10⁻⁶ cm/s	–	–	–	–	–	–	–	–
CC(C)(CCN(C[C@H]1Cc2ccccc2CN1)[C@H]1CCCc2cccnc21)CNC1CCC(F)(F)CC1	0.168 µM	18.8 µM	1.75 ×10⁻⁶ cm/s	2.04 µM	–	16.1%	16.8%	> 30 µM	> 30 µM	–	2.2 ×10⁻⁶ cm/s	< 5 µM	< 5 µM	< 5 µM	< 5 µM	–	–	–	–
CC1(C)CCC(NCC(C)(C)CCN(C[C@H]2Cc3ccccc3CN2)[C@H]2CCCc3cccnc32)CC1	0.541 µM	18.8 µM	1.1 ×10⁻⁶ cm/s	2.22 µM	7.83 µM	23.9%	51.1%	> 30 µM	> 30 µM	–	2.8 ×10⁻⁶ cm/s	< 5 µM	< 5 µM	< 5 µM	< 5 µM	–	–	–	–
c1cncc(CN(CCCCN(C[C@H]2Cc3ccccc3CN2)[C@H]2CCCc3cccnc32)Cc2cccnc2)c1	0.471 µM	11.5 µM	9.1 ×10⁻⁶ cm/s	0.348 µM	–	0.432%	1.4%	> 30 µM	> 30 µM	–	43.5 ×10⁻⁶ cm/s	–	–	–	–	–	–	–	–
c1ccc2c(c1)CN[C@@H](CN(CCCCN(Cc1ccncc1)Cc1ccncc1)[C@H]1CCCc3cccnc31)C2	0.832 µM	11.4 µM	18 ×10⁻⁶ cm/s	0.12 µM	0.622 µM	0.521%	1.55%	> 30 µM	> 30 µM	–	77.4 ×10⁻⁶ cm/s	–	–	–	–	–	–	–	–
CC1(C)CCC(NC/C=C/CN(C[C@H]2Cc3ccccc3CN2)[C@H]2CCCc3cccnc32)CC1	–	2.45 µM	–	0.66 µM	0.99 µM	42%	7.71%	> 30 µM	> 30 µM	–	–	–	–	–	–	–	–	–	–
NC/C=C/CN(C[C@H]1Cc2ccccc2CN1)[C@H]1CCCc2cccnc21	0.129 µM	> 16.7 µM	26.4 ×10⁻⁶ cm/s	0.51 µM	–	100%	10.7%	> 30 µM	> 30 µM	–	82.9 ×10⁻⁶ cm/s	–	–	–	–	–	–	–	–
CC(C)(CCN)CN(C[C@H]1Cc2ccccc2CN1)[C@H]1CCCc2cccnc21	> 33.3 µM	> 33.3 µM	26.8 ×10⁻⁶ cm/s	0.197 µM	10.8 µM	76.1%	5.22%	> 30 µM	> 30 µM	–	25.5 ×10⁻⁶ cm/s	–	–	–	–	–	–	–	–
CC(C)(CCN(C[C@H]1Cc2ccccc2CN1)[C@H]1CCCc2cccnc21)CNC1CCOCC1	0.0363 µM	11.5 µM	5.7 ×10⁻⁶ cm/s	6.21 µM	17.7 µM	21.8%	49.8%	> 30 µM	> 30 µM	0.416 µM	5.7 ×10⁻⁶ cm/s	< 5 µM	< 5 µM	< 5 µM	< 5 µM	0.02 µM	–	–	–
NCCCCN(C[C@H]1Cc2ccccc2CN1)[C@H]1CCCc2cccnc21	–	> 30 µM	0.6 ×10⁻⁶ cm/s	–	–	–	–	–	> 30 µM	0.0326 µM	–	–	–	–	–	–	1 h	6 h	< 10%
